Laboratory results as given in patent US9187487B2, “Azaindole derivatives as tyrosine kinase inhibitors” (PRINCIPIA BIOPHARMA, INC., priority 2011, dated 2015).

Target: recombinant JAK3 (catalytic domain, aa 781-1124) (Homo sapiens (Human), UniProt P52333)
Experiment: JAK3 Caliper Peptide Phosphorylation Assay
Type: biochemical
Conditions: fluorescently labeled Srctide substrate 1 uM; ATP at 1×Km (2 uM); 2 hours at 25° C.
Description: JAK3 Caliper Peptide Phosphorylation Assay
Phosphorylation of the appropriate peptide substrate (fluorescently labeled Srctide) by recombinant JAK3 (catalytic domain, aa 781-1124) was measured in the presence and absence of different concentrations of test compounds. Test compound, enzyme, fluorescently labeled substrate, and cofactors (ATP and Mg^2+) were combined in a well of a microtiter plate and incubated for 2 hours at 25° C. The composition of the reaction buffer was 100 mM HEPES pH 7.5, 5 mM MgCl2, 0.01% Triton-X 100, 0.1% Bovine Serum Albumin, and 1% DMSO. Enzyme concentration in the final reaction mixture was 0.5 nM while peptide substrate was at 1 uM. ATP was used at 1×Km concentration corresponding to 2 uM. Serial dilutions (3-fold steps) of compounds were prepared in DMSO. At the end of the incubation, the reaction was stopped by the addition of 20 mM EDTA. Substrate and product (i.e. phosphorylated substrate) were separated electrophoretically and both were quantified by fluorescence intensity using the microfluidics-based LabChip 3000 Drug Discovery System from Caliper Life Sciences. Conversion for each well was calculated and plotted as function of test compound concentration. IC50 value was determined by fitting the data to a 4-parameter logistic model by non-linear regression (XLfit model 205). In every assay, Staurosporine was tested in the same manner as reference compound. Selectivity for JAK3 was determined using commercially available kinase cross-screening services (DiscoveRx, San Diego, Calif.).

recombinant JAK3 (catalytic domain, aa 781-1124), sequence (P52333 781-1124): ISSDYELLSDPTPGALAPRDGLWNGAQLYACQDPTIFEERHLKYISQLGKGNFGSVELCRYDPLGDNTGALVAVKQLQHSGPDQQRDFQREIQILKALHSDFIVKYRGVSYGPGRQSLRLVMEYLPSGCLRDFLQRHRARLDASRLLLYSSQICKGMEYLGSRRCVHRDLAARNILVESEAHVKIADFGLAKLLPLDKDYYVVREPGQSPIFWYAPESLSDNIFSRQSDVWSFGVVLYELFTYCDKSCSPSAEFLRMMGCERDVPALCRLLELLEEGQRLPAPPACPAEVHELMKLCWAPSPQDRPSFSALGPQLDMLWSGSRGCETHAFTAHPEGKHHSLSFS

Row | SMILES | IC50
1 | CN(C)C(=O)C(C#N)=Cc1cccc(-c2ncnc3[nH]ccc23)c1 [compound 1, 3-(3-(7H-pyrrolo[2,3-d]pyrimidin-4-yl)phenyl)-2-cyano-N,N-dimethylacrylamide] | 305 nM
2 | CN(C)C(=O)C(C#N)=Cc1cccc(Nc2ncnc3[nH]ccc23)c1 [compound 3, 3-(3-((7H-pyrrolo[2,3-d]pyrimidin-4-yl)amino)-phenyl)-2-cyano-N,N-dimethylacrylamide] | 150 nM
3 | CN(C)C(=O)C(C#N)=Cc1cccc(N(C)c2ncnc3[nH]ccc23)c1 [compound 4, 2-cyano-N,N-dimethyl-3-(3-(methyl(7H-pyrrolo[2,3-d]pyrimidin-4-yl)amino)phenyl)acrylamide] | > 1000 nM
4 | CN(C)C(=O)C(C#N)=Cc1ccc(Nc2ncnc3[nH]ccc23)cc1 [compound 6, 3-(4-((7H-pyrrolo[2,3-d]pyrimidin-4-yl)amino)-phenyl)-2-cyano-N,N-dimethylacrylamide] | 580 nM
5 | CN(C)C(=O)C(C#N)=Cc1ccc(N(C)c2ncnc3[nH]ccc23)cc1 [compound 7, 2-cyano-N,N-dimethyl-3-(4-(methyl(7H-pyrrolo[2,3-d]pyrimidin-4-yl)amino)phenyl)acrylamide] | > 1000 nM
6 | CN(C)C(=O)C(C#N)=Cc1cccc(Oc2ncnc3[nH]ccc23)c1 [compound 11, 3-(3-((7H-pyrrolo[2,3-d]pyrimidin-4-yl)oxy)phenyl)-2-cyano-N,N-dimethylacrylamide] | > 1000 nM
7 | CN(C)C(=O)C(C#N)=Cc1ccc(Oc2ncnc3[nH]ccc23)cc1 [compound 12, 3-(4-((7H-pyrrolo[2,3-d]pyrimidin-4-yl)oxy)phenyl)-2-cyano-N,N-dimethylacrylamide] | 280 nM
8 | COc1c(C=C(C#N)C(=O)N(C)C)cccc1Nc1ncnc2[nH]ccc12 [compound 15, 3-(3-((7H-pyrrolo[2,3-d]pyrimidin-4-yl)amino)-2-methoxyphenyl)-2-cyano-N,N-dimethylacrylamide] | 2200 nM
9 | Cc1c(C=C(C#N)C(=O)N(C)C)cccc1Nc1ncnc2[nH]ccc12 [compound 16, 3-(3-((7H-pyrrolo[2,3-d]pyrimidin-4-yl)amino)-2-methylphenyl)-2-cyano-N,N-dimethylacrylamide] | 1270 nM
10 | CN(C)C(=O)C(C#N)=Cc1cc(Nc2ncnc3[nH]ccc23)ccc1Cl [compound 17, 3-(5-((7H-pyrrolo[2,3-d]pyrimidin-4-yl)amino)-2-chlorophenyl)-2-cyano-N,N-dimethylacrylamide] | 1770 nM
11 | Cc1ccc(Nc2ncnc3[nH]ccc23)cc1C=C(C#N)C(=O)N(C)C [compound 19, 3-(5-((7H-pyrrolo[2,3-d]pyrimidin-4-yl)amino)-2-methylphenyl)-2-cyano-N,N-dimethylacrylamide] | > 5000 nM
12 | CN(C)C(=O)C(C#N)=Cc1cccc(-c2cnc3[nH]ccc3n2)c1 [compound 27, 3-(3-(5H-pyrrolo[2,3-b]pyrazin-2-yl)phenyl)-2-cyano-N,N-dimethylacrylamide] | > 1000 nM
13 | CN(C)C(=O)C(C#N)=Cc1cccc(Nc2cnc3[nH]ccc3n2)c1 [compound 29, 3-(3-((5H-pyrrolo[2,3-b]pyrazin-2-yl)amino)phenyl)-2-cyano-N,N-dimethylacrylamide] | > 1000 nM
14 | CN(C)C(=O)C(C#N)=Cc1cccc(Oc2cnc3[nH]ccc3n2)c1 [compound 31, 3-(3-((5H-pyrrolo[2,3-b]pyrazin-2-yl)oxy)phenyl)-2-cyano-N,N-dimethylacrylamide] | > 1000 nM
15 | CN(C)C(=O)C(C#N)=Cc1ccc(Oc2cnc3[nH]ccc3n2)cc1 [compound 32, 3-(4-((5H-pyrrolo[2,3-b]pyrazin-2-yl)oxy)phenyl)-2-cyano-N,N-dimethylacrylamide] | 320 nM
16 | CC(C)NC(=O)c1c[nH]c2ncc(-c3cccc(C=C(C#N)C(=O)N(C)C)c3)nc12 [compound 47, 2-(3-(2-cyano-3-(dimethylamino)-3-oxoprop-1-en-1-yl)phenyl)-N-isopropyl-5H-pyrrolo[2,3-b]pyrazine-7-carboxamide] | 13 nM
17 | CC(C)NC(=O)c1c[nH]c2ncc(Nc3ccc(C=C(C#N)C(=O)N(C)C)cc3)nc12 [compound 50, 2-((4-(2-cyano-3-(dimethylamino)-3-oxoprop-1-en-1-yl)phenyl)amino)-N-isopropyl-5H-pyrrolo[2,3-b]pyrazine-7-carboxamide] | 0.2 nM

Row | SMILES | IC50
18 | CC(C)NC(=O)c1c[nH]c2ncc(Oc3cccc(C=C(C#N)C(=O)N(C)C)c3)nc12 [compound 51, 2-(3-(2-cyano-3-(dimethylamino)-3-oxoprop-1-en-1-yl)phenoxy)-N-isopropyl-5H-pyrrolo[2,3-b]pyrazine-7-carboxamide] | 1150 nM
19 | CN(C)C(=O)C(C#N)=Cc1ccc(Nc2cnc3[nH]cc(C(=O)C(C)(C)C)c3n2)cc1 [compound 57, 2-cyano-N,N-dimethyl-3-(4-((7-pivaloyl-5H-pyrrolo[2,3-b]pyrazin-2-yl)amino)phenyl)-acrylamide] | 1 nM
20 | CC(C)(C)C(=O)c1c[nH]c2ncc(Nc3ccc(C=C(C#N)C(N)=O)cc3)nc12 [compound 60, 2-cyano-3-(4-((7-pivaloyl-5H-pyrrolo[2,3-b]-pyrazin-2-yl)amino)phenyl)acrylamide] | 0.4 nM
21 | CC(C)(C)C(=O)c1c[nH]c2ncc(Nc3ccc(C=C(C#N)C(=O)N4CCC4)cc3)nc12 [compound 62, 2-(azetidine-1-carbonyl)-3-(4-((7-pivaloyl-5H-pyrrolo[2,3-b]pyrazin-2-yl)amino)phenyl)acrylonitrile] | 0.4 nM
22 | CN1CCN(C(=O)C(C#N)=Cc2ccc(Nc3cnc4[nH]cc(C(=O)C(C)(C)C)c4n3)cc2)CC1 [compound 64, 2-(4-methylpiperazine-1-carbonyl)-3-(4-(7-pivaloyl-5H-pyrrolo[2,3-b]pyrazin-2-ylamino)phenyl)acrylonitrile] | 0.2 nM
23 | CN(C)C(=O)C(C#N)=Cc1ccc(Nc2cnc3[nH]cc(C(=O)C(C)(C)C)c3n2)cc1F [compound 66, 2-cyano-3-(2-fluoro-4-((7-pivaloyl-5H-pyrrolo[2,3-b]pyrazin-2-yl)amino)phenyl)-N,N-dimethylacrylamide] | 0.7 nM
24 | CN(C)C(=O)C(C#N)=Cc1ccc(Nc2cnc3[nH]cc(C(=O)C(C)(C)C)c3n2)cc1Cl [compound 68, 3-(2-chloro-4-(7-pivaloyl-5H-pyrrolo-[2,3-b]pyrazin-2-ylamino)phenyl)-2-cyano-N,N-dimethylacrylamide] | 1 nM
25 | CN(C)C(=O)C(C#N)=Cc1ccc(Nc2cnc3[nH]cc(C(=O)C(C)(C)C)c3n2)c(F)c1 [compound 69, 2-cyano-3-(3-fluoro-4-((7-pivaloyl-5H-pyrrolo[2,3-b]pyrazin-2-yl)amino)phenyl)-N,N-dimethylacrylamide] | 0.5 nM
26 | CN(C)C(=O)C(C#N)=Cc1ccc(Nc2cnc3[nH]cc(C(=O)C(C)(C)C)c3n2)cn1 [compound 70, 2-cyano-N,N-dimethyl-3-(5-((7-pivaloyl-5H-pyrrolo[2,3-b]pyrazin-2-yl)amino)pyridin-2-yl)acrylamide] | 0.9 nM
27 | CN(C)C(=O)C(C#N)=Cc1ccc(Nc2cnc3[nH]cc(C(=O)NC(C)(C)C)c3n2)cc1 [compound 71, N-(tert-butyl)-2-((4-(2-cyano-3-(dimethylamino)-3-oxoprop-1-en-1-yl)phenyl)amino)-5H-pyrrolo[2,3-b]pyrazine-7-carboxamide] | 0.2 nM
28 | CN(C)C(=O)C(C#N)=Cc1ccc(Nc2cnc3[nH]cc(C(=O)C(C)(C)C)c3n2)s1 [compound 73, 2-cyano-N,N-dimethyl-3-(5-((7-pivaloyl-5H-pyrrolo[2,3-b]pyrazin-2-yl)amino)thiophen-2-yl)acrylamide] | 210 nM
29 | CC(C)(C)C(=O)c1c[nH]c2ncc(Nc3ccc(C=C(C#N)C(=O)N4CCCCC4)cc3)nc12 [compound 76, 2-(piperidine-1-carbonyl)-3-(4-((7-pivaloyl-5H-pyrrolo[2,3-b]pyrazin-2-yl)amino)phenyl)-acrylonitrile] | 1 nM
30 | CCNC(=O)C(C#N)=Cc1ccc(Nc2cnc3[nH]cc(C(=O)C(C)(C)C)c3n2)cc1 [compound 77, 2-cyano-3-(4-((7-pivaloyl-5H-pyrrolo[2,3-b]pyrazin-2-yl)amino)phenyl)-N-ethylacrylamide] | 1 nM
31 | CCN1C(=O)SC(=Cc2ccc(Nc3cnc4[nH]cc(C(=O)C(C)(C)C)c4n3)cc2)C1=O [compound 78, 3-ethyl-5-(4-((7-pivaloyl-5H-pyrrolo[2,3-b]pyrazin-2-yl)amino)benzylidene)thiazolidine-2,4-dione] | 33.5 nM
32 | CCOC(=O)C(C#N)=Cc1ccc(Nc2cnc3[nH]cc(C(=O)C(C)(C)C)c3n2)cc1 [compound 79, ethyl 2-cyano-3-(4-((7-pivaloyl-5H-pyrrolo[2,3-b]-pyrazin-2-yl)amino)phenyl)acrylate] | 100 nM
33 | CC(C)NC(=O)c1c[nH]c2ncc(Nc3ccc(C=C(C#N)C(=O)N4CCOCC4)cc3)nc12 [compound 80, N-(isopropyl)-2-((4-(2-cyano-3-morpholino-3-oxoprop-1-en-1-yl)phenyl)amino)-5H-pyrrolo[2,3-b]pyrazine-7-carboxamide] | 0.7 nM
34 | CC(C)(C)C(=O)c1c[nH]c2ncc(Nc3ccc(C=C(C#N)S(C)(=O)=O)cc3)nc12 [compound 81, 2-(methylsulfonyl)-3-(4-((7-pivaloyl-5H-pyrrolo[2,3-b]pyrazin-2-yl)amino)phenyl)-acrylonitrile] | 0.6 nM
